Consider 33 compounds from patent US12552753B2, “Methods and compositions for targeting Tregs using CCR8 inhibitors” (Nanjing Immunophage Biomedical Co., Ltd., priority 2020, dated 2026).

One may read the IC50 as the concentration at which inhibition is half-maximal. Low readings indicate greater potency, high ones weaker potency.

Each structure is given as a SMILES string. Counter-ions that a name gives are not always drawn.

The target of this test is CCR8 (Homo sapiens, UniProt P51685). The experiment in a line: Tango assay (Tango-CCR8-Gal4-CHO-K1 cells, CCL1-stimulated, ONE-Glo luminescence). The following applies: Tango Assay IC50, Inhibition of CCR8 Tango cell in vitro.
Sequence of CCR8 (P51685 whole entry, the tested form may be a part): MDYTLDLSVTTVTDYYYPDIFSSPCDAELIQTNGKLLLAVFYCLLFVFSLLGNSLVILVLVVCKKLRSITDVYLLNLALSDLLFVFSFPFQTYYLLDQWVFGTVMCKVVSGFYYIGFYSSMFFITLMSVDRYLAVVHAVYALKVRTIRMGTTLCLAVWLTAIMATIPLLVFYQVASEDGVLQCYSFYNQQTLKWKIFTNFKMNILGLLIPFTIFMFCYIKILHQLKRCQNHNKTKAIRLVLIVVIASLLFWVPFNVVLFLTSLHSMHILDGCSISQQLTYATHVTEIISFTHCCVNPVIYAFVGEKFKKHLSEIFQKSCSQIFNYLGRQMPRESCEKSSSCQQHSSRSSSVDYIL

As to `Cc1cc(S(=O)(=O)N[C@H](C)C2CCNCC2)c(C)cc1NC(=O)c1ccccc1C` [Compound 171A, (R)-N-(2,5-dimethyl-4-(N-(1-(piperidin-4-yl)ethyl)sulfamoyl)phen-yl)-2-methylbenzamide hydrochloride], the half-maximal inhibitory concentration (IC50) was found to be 19 nM.

Regarding `CC(=O)Nc1cc(C)c(S(=O)(=O)N[C@H](C)C2CCNCC2)cc1C` [Compound 172A, (R)-N-(2,5-dimethyl-4-(N-(1-(piperidin-4-yl)ethyl)sulfamoyl)phen-yl)acetamide hydrochloride], the IC50 was over 10000 nM. The result for `COc1cc(S(=O)(=O)NC(C)C2CC3CCC2CC3)c(C)cc1NC(=O)c1ccccc1C` (stereo not drawn) [Compound 173, N-(4-(N-(1-(bicyclo[2.2.2]octan-2-yl)ethyl)sulfamoyl)-2-methoxy-5-methylphenyl)-2-methylbenzamide] reads 22 nM; that for `Cc1cc(S(=O)(=O)N[C@H](C)C2CCN(C(=O)OC(C)(C)C)CC2)c(F)cc1NC(=O)c1ccccc1C` [Compound 174, (R)-tert-butyl 4-(1-(2-fluoro-5-methyl-4-(2-methylbenzamido)phen-ylsulfonamido)ethyl)pi-peridine-1-carboxylate], 914 nM. Take `Cc1cc(S(=O)(=O)N[C@H](C)C2CCNCC2)c(F)cc1NC(=O)c1ccccc1C` [Compound 175, (R)-N-(5-fluoro-2-methyl-4-(N-(1-(piperidin-4-yl)ethyl)sulfamoyl)phen-yl)-2-methylbenzamide]: the IC50 was 26 nM. The result for `Cc1ccccc1C(=O)Nc1ccc(S(=O)(=O)N[C@H](C)C2CCN(C(=O)OC(C)(C)C)CC2)c(F)c1C` [Compound 176, (R)-tert-butyl 4-(1-(2-fluoro-3-methyl-4-(2-methylbenzamido)phen-ylsulfonamido)ethyl)pi-perridine-1-carboxylate] reads 711 nM; that for `Cc1ccccc1C(=O)Nc1ccc(S(=O)(=O)N[C@H](C)C2CCNCC2)c(F)c1C` [Compound 177A, (R)-N-(3-fluoro-2-methyl-4-(N-(1-(piperidin-4-yl)ethyl)sulfamoyl)phen-yl)-2-methylbenzamide, hydrochloride], 46 nM; that for `Cc1ccccc1C(=O)Nc1ccc(S(=O)(=O)N[C@H](C)C2CCN(C(=O)OC(C)(C)C)CC2)c(Cl)c1C` [Compound 178, (R)-tert-butyl 4-(1-(2-chloro-3-methyl-4-(2-methylbenzmido)phen-ylsulfonamido)ethyl)pi-perridine-1-carboxylate], 378 nM.

Compound `Cc1ccccc1C(=O)Nc1ccc(S(=O)(=O)N[C@H](C)C2CCNCC2)c(Cl)c1C` [Compound 179A, (R)-N-(3-chloro-2-methyl-4-(N-(1-(piperidin-4-yl)eth-yl)sulfamoyl)phen-yl)-2-methylbenzamide, hydrochloride] registered an IC50 of 158 nM. This IC50 lies about 2.4-fold lower than the previous one. Consider `Cc1ccccc1C(=O)Nc1c(C)cc(S(=O)(=O)N[C@H](C)C2CCNCC2)cc1Cl` [Compound 180A, (R)-N-(2-chloro-6-methyl-4-(N-(1-(piperidin-4-yl)eth-yl)sulfamoyl)phen-yl)-2-methylbenzamide hydrochloride], for which half-maximal inhibition (IC50) required 2 nM. The result for `Cc1cc(S(=O)(=O)N[C@H](C)C2CCNCC2)cc(C)c1NC(=O)c1ccccc1` [Compound 181, (R)-N-(2,6-dimethyl-4-(N-(1-(piperidin-4-yl)ethyl)sulfa-moyl)phenyl)benza-mide hydrochloride] reads over 10000 nM; that for `Cc1ccccc1C(=O)Nc1ccc(S(=O)(=O)NC(C)C2CC3CCC2CC3)c(C)c1C` (stereo not drawn) [Compound 182, N-(4-(N-(1-(bicyclo[2.2.2]octan-2-yl)ethyl)sulfamoyl)-2,3-dimethylphenyl)-2-methylbenzamide], 61 nM.

For the compound `COc1cc(S(=O)(=O)NC(C)C2CC3CCC2CC3)c(OC)cc1NC(=O)c1ccccc1C` (stereo not drawn) [Compound 183, N-(4-(N-(1-(bicyclo[2.2.2]octan-2-yl)ethyl)sulfamoyl)-2,5-dimethoxyphenyl)-2-methylbenzamide], the IC50 is over 10000 nM. The result for `COc1cc(NC(=O)c2ccccc2C)c(C)cc1S(=O)(=O)NC(C)C1CC2CCC1CC2` (stereo not drawn) [Compound 184, N-(4-(N-(1-(bicyclo[2.2.2]octan-2-yl)ethyl)sulfamoyl)-5-methoxy-2-methylphenyl)-2-methylbenzamide] reads 16 nM; that for `Cc1ccccc1C(=O)Nc1ccc(S(=O)(=O)N[C@H](C)C2CCN(C(=O)OC(C)(C)C)CC2)cc1C(F)(F)F` [Compound 185, (R)-tert-butyl 4-(1-(4-(2-methylbenzamido)-3-(trifluoromethyl)phenyl-sulfonamido)ethyl)piper-idine-1-carboxylate], 673 nM; that for `Cc1ccccc1C(=O)Nc1ccc(S(=O)(=O)N[C@H](C)C2CCNCC2)cc1C(F)(F)F` [Compound 186A, (R)-2-methyl-N-(4-(N-(1-(piperidin-4-yl)ethyl)sulfamoyl)-2-(trifluoromethyl)phenyl) benzamide hydrochloride], 182 nM. The result for `Cc1ccccc1C(=O)Nc1cc(C)c(S(=O)(=O)N[C@H](C)C2CCNCC2)cc1Cl` [Compound 187A, (R)-N-(2-chloro-5-methyl-4-(N-(1-(piperidin-4-yl)ethyl)sulfamoyl)phen-yl)-2-methylbenzamide hydrochloride] reads 6.3 nM; that for `Cc1ccccc1C(=O)Nc1ccc(S(=O)(=O)N[C@H](C)C2CCN(C(=O)OC(C)(C)C)CC2)c(C(F)(F)F)c1` [Compound 188, (R)-tert-butyl 4-(1-(4-(2-methylbenzamido)-2-(trifluoromethyl)phenyl-sulfonamido)ethyl)piper-idine-1-carboxylate], 302 nM; that for `Cc1ccccc1C(=O)Nc1ccc(S(=O)(=O)N[C@H](C)C2CCNCC2)c(C(F)(F)F)c1` [Compound 189A, (R)-2-methyl-N-(4-(N-(1-(piperidin-4-yl)ethyl)sulfamoyl)-3-(trifluoromethyl)phenyl) benzamide hydrochloride], over 10000 nM. Regarding `Cc1ccccc1C(=O)Nc1ccc(S(=O)(=O)N[C@H](C)C2CCNCC2)cc1F` [Compound 190A, (R)-N-(2-fluoro-4-(N-(1-(piperidin-4-yl)ethyl)sulfamoyl)phen-yl)-2-methylbenzmaide hydrochloride], the IC50 is 58 nM. `Cc1ccccc1C(=O)Nc1ccc(S(=O)(=O)N[C@H](C)C2CCN(C(=O)OC(C)(C)C)CC2)cc1Br` [Compound 191, (R)-tert-butyl 4-(1-(3-bromo-4-(2-methylbenzamido)phen-ylsulfonamido)ethyl)pi-peridine-1-carboxylate] gave a half-inhibitory concentration (IC50) of over 10000 nM. On to `Cc1ccccc1C(=O)Nc1ccc(S(=O)(=O)N[C@H](C)C2CCNCC2)cc1Br` [Compound 192A, (R)-N-(2-bromo-4-(N-(1-(piperidin-4-yl)ethyl)sulfamoyl)phen-yl)-2-methylbenzamide hydrochloride], for which 26 nM corresponded to half-maximal inhibition (IC50).

Turning to `Cc1ccccc1C(=O)Nc1ccc(S(=O)(=O)N[C@H](C)C2CCN(C(=O)OC(C)(C)C)CC2)cc1C#N` [Compound 193, (R)-tert-butyl 4-(1-(3-cyano-4-(2-methylbenzamido)phenylsulfonamido)ethyl) piperidine-1-carboxylate], the half-maximal inhibitory concentration (IC50) was over 10000 nM.

As to `Cc1ccccc1C(=O)Nc1ccc(S(=O)(=O)N[C@H](C)C2CCNCC2)cc1C(N)=O` [Compound 194, (R)-N-(2-carbamoyl-4-(N-(1-(piperidin-4-yl)ethyl)sulfamoyl)phenyl)-2-methylbenzamide], the IC50 was over 10000 nM. Take `Cc1ccccc1C(=O)Nc1ccc(S(=O)(=O)N[C@H](C)C2CCNCC2)cc1C#N` [Compound 195, (R)-N-(2-cyano-4-(N-(1-(piperidin-4-yl)ethyl)sulfamoyl)phenyl)-2-methylbenzamide]: the half-maximal inhibitory concentration (IC50) is 23 nM. In other words, the double-digit nanomolar range.

`CCc1cc(S(=O)(=O)N[C@H](C)C2CCNCC2)ccc1NC(=O)c1ccccc1C` [Compound 196, (R)-N-(2-ethyl-4-(N-(1-(piperidin-4-yl)ethyl)sulfamoyl)phenyl)-2-methylbenzamide]: the concentration for half-maximal inhibition (IC50) turned out to be 18 nM. This IC50 and that of the compound before are within 1.5-fold of each other. The result for `Cc1ccccc1C(=O)Nc1ccc(S(=O)(=O)N[C@H](C)C2CCNCC2)cc1C(C)C` [Compound 197A, (R)-N-(2-isopropyl-4-(N-(1-(piperidin-4-yl)ethyl)sulfamoyl)phenyl)-2-methylbenzamide hydrochloride] reads 115 nM; that for `Cc1ccccc1C(=O)Nc1ccc(S(=O)(=O)N[C@H](C)C2CCNCC2)cc1C1CC1` [Compound 198, (R)-N-(2-cyclopropyl-4-(N-(1-(piperidin-4-yl)ethyl)sulfamoyl)phenyl)-2-methylbenzamide], 26 nM; that for `Cc1ccccc1C(=O)Nc1ncc(S(=O)(=O)N[C@H](C)C2CCNCC2)cc1C` [Compound 199A, (R)-2-methyl-N-(3-methyl-5-(N-(1-(piperidin-4-yl)ethyl)sulfamoyl)pyridin-2-yl)benzamide hydrochloride], 438 nM. `Cc1cc(S(=O)(=O)N[C@H](C)C2CCN(C(C)C)CC2)ccc1NC(=O)c1ccccc1C` [Compound 200, (R)-N-(4-(N-(1-(1-isopropylpiperidin-4-yl)ethyl)sulfamoyl)-2-methylphenyl)-2-methylbenzamide]: the IC50 stood at 15 nM.

`COCCN1CCC([C@@H](C)NS(=O)(=O)c2ccc(NC(=O)c3ccccc3C)c(C)c2)CC1` [Compound 202, (R)-N-(4-(N-(1-(1-(2-methoxyethyl)piperidin-4-yl)ethyl)sulfamoyl)-2-methylphenyl)-2-methylbenzamide]: the 50% inhibitory concentration (IC50) stood at 60 nM. The compound `Cc1cc(S(=O)(=O)N[C@H](C)C2CCN(CCO)CC2)ccc1NC(=O)c1ccccc1C` [Compound 205, (R)-N-(4-(N-(1-(1-(2-hydroxyethyl)piperidin-4-yl)ethyl)sulfamoyl)-2-methylphenyl)-2-methylbenzamide] yielded an IC50 of 41 nM.

With `Cc1cc(S(=O)(=O)N[C@H](C)C2CCN(CC(F)(F)F)CC2)ccc1NC(=O)c1ccccc1C` [Compound 206, (R)-2-methyl-N-(2-methyl-4-(N-(1-(1-(2,2,2-trifluoroethyl)piperidin-4-yl)ethyl)sulfamoyl)phenyl)benzamide], the IC50 stood at 61 nM.
